Three compounds from BindingDB's records for PubMed 7891350 (Parke-Davis Pharmaceutical Research, 1995) can be followed below.

Structures are written as SMILES. A value given as a limit tells only on which side of the number the result lay.

Assay [1] concerns the target T1, Type-2 angiotensin II receptor (Rattus norvegicus, UniProt P35351).
T1 sequence (P35351 whole entry): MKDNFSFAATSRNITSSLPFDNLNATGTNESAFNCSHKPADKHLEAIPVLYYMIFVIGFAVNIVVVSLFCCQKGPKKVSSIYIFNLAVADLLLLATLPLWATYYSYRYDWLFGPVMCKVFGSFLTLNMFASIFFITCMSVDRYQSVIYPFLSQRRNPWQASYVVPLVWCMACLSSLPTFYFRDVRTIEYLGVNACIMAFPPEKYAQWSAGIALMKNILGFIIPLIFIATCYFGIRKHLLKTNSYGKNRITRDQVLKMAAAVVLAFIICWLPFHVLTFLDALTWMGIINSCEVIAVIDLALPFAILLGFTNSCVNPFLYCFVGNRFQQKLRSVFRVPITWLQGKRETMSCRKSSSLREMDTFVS

For assay [2], the target named is T2, Type-1 angiotensin II receptor A (Rattus norvegicus, UniProt P25095).
T2 sequence (P25095 whole entry): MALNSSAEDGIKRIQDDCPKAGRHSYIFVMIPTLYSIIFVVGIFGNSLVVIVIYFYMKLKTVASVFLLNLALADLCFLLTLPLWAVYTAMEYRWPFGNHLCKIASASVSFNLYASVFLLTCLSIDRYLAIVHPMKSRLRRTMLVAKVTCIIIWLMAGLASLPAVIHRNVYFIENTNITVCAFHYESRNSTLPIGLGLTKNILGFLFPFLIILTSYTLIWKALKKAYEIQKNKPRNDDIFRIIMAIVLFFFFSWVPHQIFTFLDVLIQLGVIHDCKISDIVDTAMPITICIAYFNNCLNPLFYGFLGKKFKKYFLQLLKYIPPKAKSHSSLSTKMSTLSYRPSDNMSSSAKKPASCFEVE

Turning to `CCCc1nc(-n2cccc2C(=O)C(F)(F)F)c(C(=O)O)n1Cc1ccc(-c2ccccc2-c2nn[nH]n2)cc1`, in assay [1], the inhibition constant (Ki) (in general, a measure of affinity in units of concentration, obtained from inhibition or displacement) is above 10 µM.

On to `CCCCc1ncc(/C=C(\Cc2cccs2)C(=O)O)n1Cc1ccc(C(=O)O)cc1` [(E)-3-[2-n-butyl-1-{(4-carboxyphenyl)methyl}-1H-imidazol-5-yl]-2-(2-thienyl)methyl-2-propenoic acid], for which, in assay [1], the inhibition constant Ki was above 10 µM.

For the compound `CCc1nc2c(C)cc(C)nc2n1-c1ccc(-c2ccccc2-c2nnn[nH]2)cc1` [CAS_123856], the results for the Ki in assay [2] and in assay [1] were 0.0007 µM and above 10 µM, respectively.
